In one assay the test system is EBC-1. Briefly: Antiproliferative activity against human EBC-1 cells incubated for 48 hrs by MTT assay. It counts as functional, cell-based. The note with it: EBC-1, 48 h.
For the next assay, the system named is HCT-116. In words: Antiproliferative activity against human HCT-116 cells incubated for 48 hrs by MTT assay. Type of assay: functional, cell-based. The note with it: HCT-116, 48 h. (In general: Formazan colour is commonly taken as a measure of viable cells.)
Another assay relates to NCI-H1581. Briefly: Antiproliferative activity against human NCI-H1581 cells incubated for 48 hrs by MTT assay. Type of assay: functional, cell-based. The note with it: NCI-H1581, 48 h.
Assay [1] has as its target T1, Protein deacetylase HDAC6 (Homo sapiens, UniProt Q9UBN7).
T1 sequence (Q9UBN7 whole entry): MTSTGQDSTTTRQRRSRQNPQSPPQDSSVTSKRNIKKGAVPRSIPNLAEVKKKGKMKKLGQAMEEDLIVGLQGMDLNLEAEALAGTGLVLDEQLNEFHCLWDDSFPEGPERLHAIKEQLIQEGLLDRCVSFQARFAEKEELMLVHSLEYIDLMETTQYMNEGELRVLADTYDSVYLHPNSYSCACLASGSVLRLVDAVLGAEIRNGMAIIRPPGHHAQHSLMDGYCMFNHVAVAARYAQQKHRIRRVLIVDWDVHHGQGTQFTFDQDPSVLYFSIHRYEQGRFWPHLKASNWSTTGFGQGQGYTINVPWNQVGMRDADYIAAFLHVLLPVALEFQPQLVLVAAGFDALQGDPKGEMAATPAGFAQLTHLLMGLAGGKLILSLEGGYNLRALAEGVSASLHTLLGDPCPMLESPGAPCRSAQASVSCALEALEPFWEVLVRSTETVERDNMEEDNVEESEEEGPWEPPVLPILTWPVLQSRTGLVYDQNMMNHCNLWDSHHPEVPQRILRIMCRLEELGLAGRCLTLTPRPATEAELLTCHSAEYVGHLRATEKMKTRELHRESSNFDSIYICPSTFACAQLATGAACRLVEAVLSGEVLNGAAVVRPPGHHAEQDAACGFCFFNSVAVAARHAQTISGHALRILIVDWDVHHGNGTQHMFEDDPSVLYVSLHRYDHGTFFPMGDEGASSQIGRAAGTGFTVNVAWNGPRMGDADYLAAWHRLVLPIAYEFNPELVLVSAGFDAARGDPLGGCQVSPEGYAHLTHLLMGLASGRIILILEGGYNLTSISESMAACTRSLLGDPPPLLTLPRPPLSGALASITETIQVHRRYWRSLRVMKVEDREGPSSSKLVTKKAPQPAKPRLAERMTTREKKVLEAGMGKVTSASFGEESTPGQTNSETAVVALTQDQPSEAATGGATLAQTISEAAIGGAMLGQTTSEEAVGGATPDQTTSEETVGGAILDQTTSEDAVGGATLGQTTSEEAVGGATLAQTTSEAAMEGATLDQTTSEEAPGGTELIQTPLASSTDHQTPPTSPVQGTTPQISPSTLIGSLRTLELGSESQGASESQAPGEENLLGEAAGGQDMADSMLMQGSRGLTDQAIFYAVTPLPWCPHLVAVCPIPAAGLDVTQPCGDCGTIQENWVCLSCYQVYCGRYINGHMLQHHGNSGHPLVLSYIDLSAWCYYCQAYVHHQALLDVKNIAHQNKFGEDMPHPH
Briefly: Inhibition of recombinant human HDAC6 using Boc-Lys(Ac)-AMC as substrate preincubated for 1 hr followed by substrate addition and measured after 2 hrs by microplate reader assay.

In assay [2] the target is Class 1 histone deacetylase (Homo sapiens) (UniProt Q13547+O15379+Q92769+Q9BY41). Briefly: Inhibition of class 1 HDACs in human HCT-116 cells assessed as upregulation of acetylated alpha-H3 level at 1 uM incubated for 24 hrs by Western blotting analysis. Type of assay: cell-based. Background: In western blotting, separated proteins are transferred to a membrane and probed.

The next assay deals with Histone deacetylase 1 (Homo sapiens, UniProt Q13547). In words: Inhibition of recombinant human HDAC1 using Boc-Lys(Ac)-AMC as substrate preincubated for 1 hr followed by substrate addition and measured after 2 hrs by microplate reader assay.
The target of assay [3] is T2, Protein deacetylase HDAC6 (Homo sapiens) (UniProt Q9UBN7).
T2 sequence (whole entry): T1 sequence (Q9UBN7 whole entry)
Briefly: Inhibition of HDAC6 in human HCT-116 cells assessed as upregulation of acetylated alpha-tubulin level at 1 uM incubated for 24 hrs by Western blotting analysis. Type of assay: cell-based.

Drawing on ChEMBL document CHEMBL5584238, “Psammaplin A analogues with modified disulfide bond targeting histone deacetylases: Synthesis and biological evaluation” (Eur J Med Chem, 2024), this text covers IC50 and inhibition for 35 compounds.

Active and inactive are the calls of the source. The rule behind the calls is not given here.

Usually IC50 stands for the concentration that inhibits the measured activity by half.

Sequence of Histone deacetylase 1 (Q13547 whole entry): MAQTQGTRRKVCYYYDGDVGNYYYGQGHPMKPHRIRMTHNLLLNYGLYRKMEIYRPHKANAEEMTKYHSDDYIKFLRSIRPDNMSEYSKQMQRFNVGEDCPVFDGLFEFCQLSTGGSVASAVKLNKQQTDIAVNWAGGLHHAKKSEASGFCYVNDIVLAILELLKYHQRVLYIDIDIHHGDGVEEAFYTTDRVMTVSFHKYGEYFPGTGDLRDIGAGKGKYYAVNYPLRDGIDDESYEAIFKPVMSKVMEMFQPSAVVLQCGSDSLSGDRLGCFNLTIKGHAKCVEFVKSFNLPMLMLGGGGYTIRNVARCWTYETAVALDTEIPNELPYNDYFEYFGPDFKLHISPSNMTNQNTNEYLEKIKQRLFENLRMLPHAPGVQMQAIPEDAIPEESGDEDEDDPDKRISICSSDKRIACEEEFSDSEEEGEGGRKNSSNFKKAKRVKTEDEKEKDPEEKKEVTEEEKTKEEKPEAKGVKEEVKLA
Sequence of Class 1 histone deacetylase (Homo sapiens) (O15379 whole entry, looked up): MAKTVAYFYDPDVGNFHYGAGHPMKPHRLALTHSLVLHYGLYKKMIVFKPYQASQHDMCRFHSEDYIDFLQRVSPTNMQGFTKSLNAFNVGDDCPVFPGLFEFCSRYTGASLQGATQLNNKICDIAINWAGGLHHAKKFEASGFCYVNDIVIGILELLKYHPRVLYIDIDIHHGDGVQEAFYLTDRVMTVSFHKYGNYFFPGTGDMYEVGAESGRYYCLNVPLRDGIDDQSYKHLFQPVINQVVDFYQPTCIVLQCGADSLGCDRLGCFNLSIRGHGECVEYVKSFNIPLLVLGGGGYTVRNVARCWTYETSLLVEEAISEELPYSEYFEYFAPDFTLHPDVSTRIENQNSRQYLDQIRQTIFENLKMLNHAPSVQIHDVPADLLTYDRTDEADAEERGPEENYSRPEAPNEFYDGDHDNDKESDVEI
Sequence of Class 1 histone deacetylase (Homo sapiens) (Q13547 whole entry, looked up): as the sequence (Q13547 whole entry) above
Sequence of Class 1 histone deacetylase (Homo sapiens) (Q92769 whole entry, looked up): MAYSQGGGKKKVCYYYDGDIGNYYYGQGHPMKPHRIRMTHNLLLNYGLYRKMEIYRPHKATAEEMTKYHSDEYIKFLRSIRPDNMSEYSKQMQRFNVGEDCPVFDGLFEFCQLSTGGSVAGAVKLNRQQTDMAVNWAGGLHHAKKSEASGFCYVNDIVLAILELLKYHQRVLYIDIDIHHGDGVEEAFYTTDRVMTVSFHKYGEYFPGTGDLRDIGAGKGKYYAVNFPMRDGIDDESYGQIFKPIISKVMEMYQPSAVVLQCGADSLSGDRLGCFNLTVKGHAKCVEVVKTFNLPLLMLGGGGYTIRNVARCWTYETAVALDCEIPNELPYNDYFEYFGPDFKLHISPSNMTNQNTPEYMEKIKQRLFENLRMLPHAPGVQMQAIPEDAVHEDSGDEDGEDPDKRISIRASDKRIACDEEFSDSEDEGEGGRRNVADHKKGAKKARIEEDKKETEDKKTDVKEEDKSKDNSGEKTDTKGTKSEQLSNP
Sequence of Class 1 histone deacetylase (Homo sapiens) (Q9BY41 whole entry, looked up): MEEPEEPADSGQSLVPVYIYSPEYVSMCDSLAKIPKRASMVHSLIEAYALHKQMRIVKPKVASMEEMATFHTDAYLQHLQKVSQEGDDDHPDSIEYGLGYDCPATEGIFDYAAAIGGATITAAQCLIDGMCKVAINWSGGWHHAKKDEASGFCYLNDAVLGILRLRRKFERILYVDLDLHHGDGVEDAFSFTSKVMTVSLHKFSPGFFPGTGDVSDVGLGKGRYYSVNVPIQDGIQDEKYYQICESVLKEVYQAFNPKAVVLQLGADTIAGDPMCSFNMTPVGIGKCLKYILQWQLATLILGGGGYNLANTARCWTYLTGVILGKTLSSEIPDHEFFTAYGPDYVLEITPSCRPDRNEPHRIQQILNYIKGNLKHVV

As for `O=C(NC1CCS[Se]C1)/C(Cc1ccc(Cl)s1)=N/O` (configuration not stated), the figures for the IC50 in the assay with EBC-1, in the assay on HCT-116 and in the assay on NCI-H1581 were above 10 µM, above 10 µM and 2.46 µM, respectively.
On to `O=C(NC1CSSC1)/C(Cc1ccc(O)cc1)=N/O`, for which the concentration for half-maximal inhibition (IC50) in the assay with EBC-1 was above 10 µM; in the assay with HCT-116, 9.67 µM; with NCI-H1581, above 10 µM.
`O=C(NC1CC[Se]SC1)/C(Cc1ccc(O)cc1)=N/O` (configuration not stated): the concentration for half-maximal inhibition (IC50) with EBC-1 was above 10 µM; in the assay on HCT-116 it was above 10 µM; in the assay with NCI-H1581, 1.28 µM.
As for `N#Cc1ccc(COc2ccc(C/C(=N\O)C(=O)NC3CSSC3)cc2)cc1`, the IC50 in the assay on EBC-1, in the assay with HCT-116 and in the assay with NCI-H1581 was above 10 µM throughout.
Turning to `O=C(NC1CCS[Se]C1)/C(Cc1ccc(Br)s1)=N/O` (configuration not stated), the IC50 with EBC-1 was above 10 µM; in the assay on HCT-116, above 10 µM; in the assay on NCI-H1581 it was 3.6 µM.
As for `O=C(NC1CC[Se][Se]C1)/C(Cc1ccc(O)cc1)=N/O` (configuration not stated), the IC50 in the assay on EBC-1, in the assay on HCT-116 and in the assay on NCI-H1581 was above 10 µM in each case.
For the compound `O=C(NCC[Se][Se]CCNC(=O)/C(Cc1cccs1)=N/O)/C(Cc1cccs1)=N/O`, the IC50 with EBC-1 worked out at 1.13 µM; in the assay on HCT-116, 0.19 µM; with NCI-H1581 it was 0.16 µM.
As to `Cc1ccc(C/C(=N\O)C(=O)NCCSSCCNC(=O)/C(Cc2ccc(C)o2)=N/O)o1`, the IC50 in the assay on EBC-1 is above 10 µM; in the assay with HCT-116, 6.9 µM; in the assay with NCI-H1581 it was above 10 µM.
For the compound `O=C(NCCSSCCNC(=O)/C(Cc1ccc(Br)s1)=N/O)/C(Cc1ccc(Br)s1)=N/O`, the IC50 is above 10 µM in the assay on EBC-1, 2.22 µM in the assay on HCT-116 and 4.17 µM in the assay on NCI-H1581.
On to `O=C(NC1CCS[Se]C1)/C(Cc1ccc(O)cc1)=N/O` (configuration not stated), for which the values for the IC50 with EBC-1, in the assay on HCT-116 and in the assay with NCI-H1581 were above 10 µM, above 10 µM and 2.24 µM, respectively.
Take `O=C(NCC[Se][Se]CCNC(=O)/C(Cc1ccc(Br)s1)=N/O)/C(Cc1ccc(Br)s1)=N/O`: the IC50 with EBC-1 was found to be 0.72 µM; in the assay on HCT-116, 0.41 µM; in assay [1] it was 3.6 µM; at Histone deacetylase 1 it was 0.57 µM; in the assay with NCI-H1581, 0.3 µM. The inhibition result in assay [2] and in assay [3] was “Active” each time.
On to `O=C(NC1CSSC1)/C(Cc1ccc(O)c(Br)c1)=N/O`, for which the IC50 is above 10 µM with EBC-1, 6.02 µM in the assay on HCT-116 and above 10 µM in the assay on NCI-H1581.
As for `O=C(NCCSSCCNC(=O)/C(Cc1ccc(Cl)s1)=N/O)/C(Cc1ccc(Cl)s1)=N/O`, the IC50 with EBC-1 was above 10 µM; in the assay on HCT-116, 5.48 µM; with NCI-H1581, 4.02 µM.
For `O=C(NC1CCSSC1)/C(Cc1ccc(O)c(Br)c1)=N/O` (configuration not stated), in that order: above 10 µM, above 10 µM and above 10 µM.
In the same order, the values of `O=C(NC1CS[Se]C1)/C(Cc1ccc(O)c(Br)c1)=N/O` (configuration not stated) are 3.31 µM, 1.53 µM and 0.93 µM.
For `CC(C)(CNC(=O)/C(Cc1ccc(O)c(Br)c1)=N/O)SSCCNC(=O)/C(Cc1ccc(O)c(Br)c1)=N/O`, in that order: above 10 µM, 3.52 µM and 3.75 µM.
Turning to `O=C(NC1CC[Se][Se]C1)/C(Cc1cccc(F)c1)=N/O` (configuration not stated), the IC50 in the assay with EBC-1, with HCT-116 and with NCI-H1581 was above 10 µM throughout.
Take `O=C(NCCSSCCNC(=O)/C(Cc1cccs1)=N/O)/C(Cc1cccs1)=N/O`: the values for the IC50 in the assay on EBC-1, with HCT-116 and with NCI-H1581 were above 10 µM, 4.94 µM and 6.16 µM, respectively.
For `O=C(NCCSSCCNC(=O)/C(Cc1ccsc1)=N/O)/C(Cc1ccsc1)=N/O`, the figures for the IC50 in the assay with EBC-1, with HCT-116 and in the assay with NCI-H1581 were above 10 µM, 8.97 µM and above 10 µM, respectively.
`O=C(NCC[Se][Se]CCNC(=O)/C(Cc1ccc(Cl)s1)=N/O)/C(Cc1ccc(Cl)s1)=N/O`: the half-inhibitory concentration (IC50) in the assay on EBC-1 is 1.36 µM; with HCT-116 it was 0.5 µM; in the assay on NCI-H1581 it was 0.28 µM.
In the same order, the values of `O=C(NC1CCSSC1)/C(Cc1cccc(F)c1)=N/O` (configuration not stated) are above 10 µM, above 10 µM and above 10 µM.
In the same order, the values of `O=C(NC1C[Se][Se]C1)/C(Cc1ccc(O)c(Br)c1)=N/O` are above 10 µM, above 10 µM and above 10 µM.
For `O=C(NCCSSCCNC(=O)/C(Cc1ccc(Br)o1)=N/O)/C(Cc1ccc(Br)o1)=N/O`, in that order: above 10 µM, 1.74 µM and above 10 µM.
`O=C(NCCSSCCNC(=O)/C(Cc1ccc(O)cc1)=N/O)/C(Cc1ccc(O)cc1)=N/O` displayed an IC50 in the assay on HCT-116 of 6.57 µM.
Turning to `O=C(NCC[Se][Se]CCNC(=O)/C(Cc1ccco1)=N/O)/C(Cc1ccco1)=N/O`, the IC50 with EBC-1 stood at 0.45 µM; in the assay with HCT-116, 0.41 µM; in the assay on NCI-H1581 it was 0.3 µM.
In the same order, the values of `O=C(NC1CC[Se][Se]C1)/C(Cc1ccc(O)c(Br)c1)=N/O` (configuration not stated) are above 10 µM, above 10 µM and above 10 µM.
In the same order, the values of `CC(C)(CNC(=O)/C(Cc1ccc(O)c(Br)c1)=N/O)SSC(C)(C)CNC(=O)/C(Cc1ccc(O)c(Br)c1)=N/O` are above 10 µM, 5.53 µM and above 10 µM.
For `O=C(NC1CC[Se]SC1)/C(Cc1ccc(Br)s1)=N/O` (configuration not stated), in that order: above 10 µM, above 10 µM and 1.44 µM.
Consider `O=C(NCCSSCCNC(=O)/C(Cc1ccco1)=N/O)/C(Cc1ccco1)=N/O`, for which the IC50 in the assay with EBC-1, in the assay on HCT-116 and with NCI-H1581 was above 10 µM in each case.
On to `O=C(NC1CC[Se]SC1)/C(Cc1ccc(Cl)s1)=N/O` (configuration not stated), for which the IC50 in the assay on EBC-1 is above 10 µM; with HCT-116, above 10 µM; with NCI-H1581, 1.1 µM.
`O=C(NC1CS[Se]C1)/C(Cc1ccc(O)cc1)=N/O` (configuration not stated): the IC50 in the assay with EBC-1 was found to be 3.47 µM; with HCT-116 it was 3.3 µM; in the assay with NCI-H1581, 0.84 µM.
In the same order, the values of `O=C(NC1CSSC1)/C(Cc1cccc(F)c1)=N/O` are above 10 µM, above 10 µM and above 10 µM.
In the same order, the values of `O=C(NC1CCSSC1)/C(Cc1ccc(O)cc1)=N/O` (configuration not stated) are above 10 µM, above 10 µM and above 10 µM.
Consider `O=C(NC1C[Se][Se]C1)/C(Cc1ccc(O)cc1)=N/O`, for which the IC50 in the assay on EBC-1, in the assay with HCT-116 and in the assay with NCI-H1581 was above 10 µM throughout.
`O=C(NCCSSCCNC(=O)/C(Cc1ccc[nH]1)=N/O)/C(Cc1ccc[nH]1)=N/O`: the IC50 with EBC-1, in the assay with HCT-116 and with NCI-H1581 was above 10 µM in each case.
